US10265307B2, “Thiazolecarboxamides and pyridinecarboxamide compounds useful as Pim kinase inhibitors” (Incyte Corporation, priority 2013, dated 2019)

Columns and labels:
Type in all cases: biochemical
Pim-1 = Pim-1 (Homo sapiens (Human), UniProt P11309); test: Pim-1 kinase assay; settings: 1 mM ATP; read-out: Pim1 IC50
Description: Supplementation of the STOP buffer with beads and stopping the reactions were done under reduced light. Prior to the stopping reactions STOP buffer with beads was pre-incubated for 1 h in the dark at room temperature. After stopping the reactions, plates were incubated for 1 h in the dark at room temperature before reading on a PHERAstar FS plate reader (BMG Labtech) under reduced light.

Pim-2 = Pim-2 (Homo sapiens (Human), UniProt Q9P1W9); test: Pim-2 kinase assay; settings: 1 mM ATP; read-out: Pim2 IC50
Sequence of Pim-2 (Q9P1W9 whole entry): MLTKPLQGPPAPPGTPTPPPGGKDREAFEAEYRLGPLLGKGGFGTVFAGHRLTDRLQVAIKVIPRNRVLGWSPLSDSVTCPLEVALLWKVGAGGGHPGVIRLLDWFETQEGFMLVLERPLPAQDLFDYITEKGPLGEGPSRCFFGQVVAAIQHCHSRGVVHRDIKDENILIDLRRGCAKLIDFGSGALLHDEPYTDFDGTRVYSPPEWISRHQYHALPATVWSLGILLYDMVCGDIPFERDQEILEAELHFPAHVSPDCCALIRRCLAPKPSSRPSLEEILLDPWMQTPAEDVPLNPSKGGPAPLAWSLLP

Pim-3 = Pim-3 (Homo sapiens (Human), UniProt Q86V86); test: Pim-3 kinase assay; settings: 1 mM ATP; read-out: Pim3 IC50
Method in brief: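 AlphaScreen-type assay: […] Pim-3 phosphorylates 0.05 μM biotin-BAD peptide with 1 mM ATP, 1 h at 25 °C, pH 7.5 Tris buffer with MgCl2 and DTT. EDTA stop with phospho-BAD (Ser112) antibody and donor/acceptor beads, 1 h dark incubation before reading.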

Measured: IC50

Sequence of Pim-1 (P11309 whole entry): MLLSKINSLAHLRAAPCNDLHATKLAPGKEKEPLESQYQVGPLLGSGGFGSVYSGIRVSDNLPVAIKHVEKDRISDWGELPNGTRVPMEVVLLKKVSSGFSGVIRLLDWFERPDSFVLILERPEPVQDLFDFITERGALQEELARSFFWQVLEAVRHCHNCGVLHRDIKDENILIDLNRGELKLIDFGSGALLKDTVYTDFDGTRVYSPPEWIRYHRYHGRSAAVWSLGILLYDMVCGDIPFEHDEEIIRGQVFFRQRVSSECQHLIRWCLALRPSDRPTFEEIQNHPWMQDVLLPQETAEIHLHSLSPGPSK

C[C@H]1CN(c2c(NC(=O)c3ccc(F)c(-c4c(F)cc(OC5CCCOC5)cc4F)n3)cnc3c2CCO3)C[C@@H](N)[C@@H]1O (stereo partly drawn) [Example 69, N-{4-[(3R,4R,5S)-3-amino-4-hydroxy-5-methylpiperidin-1-yl]-2,3-dihydrofuro[2,3-b]pyridin-5-yl}-6-[2,6-difluoro-4-(tetrahydro-2H-pyran-3-yloxy)phenyl]-5-fluoropyridine-2-carboxamide]
≤ 100 nM: all assays above

C[C@H]1CN(c2c(NC(=O)c3nc(-c4c(F)cccc4F)c(F)cc3N)cnc3c2CCO3)C[C@@H](N)[C@@H]1O [Example 71, 3-Amino-N-{4-[(3R,4R,5S)-3-amino-4-hydroxy-5-methylpiperidin-1-yl]-2,3-dihydrofuro[2,3-b]pyridin-5-yl}-6-(2,6-difluorophenyl)-5-fluoropyridine-2-carboxamide]
≤ 100 nM: all assays above

COc1ccc(F)c(-c2nc(C(=O)Nc3cnc4c(c3N3C[C@H](C)C[C@H](N)C3)CCO4)ccc2F)c1F [Example 73, N-{4-[(3S,5R)-3-Amino-5-methylpiperidin-1-yl]-2,3-dihydrofuro[2,3-b]pyridin-5-yl}-6-(2,6-difluoro-3-methoxyphenyl)-5-fluoropyridine-2-carboxamide]
≤ 100 nM: all assays above

COc1ccc(F)c(-c2nc(C(=O)Nc3cnc4c(c3N3C[C@@H](N)[C@H](O)[C@@H](C)C3)CCO4)ccc2F)c1F [Example 74, N-{4-[(3R,4R,5S)-3-Amino-4-hydroxy-5-methylpiperidin-1-yl]-2,3-dihydrofuro[2,3-b]pyridin-5-yl}-6-(2,6-difluoro-3-methoxyphenyl)-5-fluoropyridine-2-carboxamide]
≤ 100 nM: all assays above

C[C@H]1CN(c2c(NC(=O)c3nc(-c4c(F)cccc4F)sc3N)cnc3c2CCO3)C[C@@H](N)[C@@]1(C)O [Example 75, 5-Amino-N-{4-[(3R,4S,5S)-3-amino-4-hydroxy-4,5-dimethylpiperidin-1-yl]-2,3-dihydrofuro[2,3-b]pyridin-5-yl}-2-(2,6-difluorophenyl)-1,3-thiazole-4-carboxamide]
≤ 100 nM: all assays above

C[C@H]1CN(c2c(NC(=O)c3nc(-c4c(F)cccc4F)sc3N)cnc3c2CCO3)C[C@@H](N)[C@]1(C)O [Example 76, 5-Amino-N-{4-[(3R,4R,5S)-3-amino-4-hydroxy-4,5-dimethylpiperidin-1-yl]-2,3-dihydrofuro[2,3-b]pyridin-5-yl}-2-(2,6-difluorophenyl)-1,3-thiazole-4-carboxamide]
≤ 100 nM: all assays above
